The source of these data is ChEMBL document CHEMBL1909294, “Translating clinical findings into knowledge in drug safety evaluation--drug induced liver injury prediction system (DILIps)” (PLoS Comput Biol, 2011).

Data set [1] relates to Hepatotoxicity.
The test system of data set [2] is Hepatotoxicity. This is another data set of the same source.
Data set [3] deals with Hepatotoxicity. The source holds these as a separate data set.
Data set [4] has as its system Hepatotoxicity. This is another data set of the same source.
In data set [5] the test system is Hepatotoxicity. The source holds these as a separate data set.
Data set [6] concerns Hepatotoxicity. This is another data set of the same source.
In data set [7] the test system is Hepatotoxicity. This is another data set of the same source.
Data set [8] has as its system Hepatotoxicity. The source holds these as a separate data set.
Data set [9] deals with Hepatotoxicity. This is another data set of the same source.
Data set [10] relates to Hepatotoxicity. The source holds these as a separate data set.
Data set [11] relates to Hepatotoxicity. The source holds these as a separate data set.
The subject of data set [12] is Hepatotoxicity. The source holds these as a separate data set.
Data set [13] concerns Hepatotoxicity. The source holds these as a separate data set.
The subject of data set [14] is Hepatotoxicity. This is another data set of the same source.
Data set [15] relates to Hepatotoxicity. This is another data set of the same source.
Data set [16] deals with Hepatotoxicity. This is another data set of the same source.
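For HepSE Combined Scores in this document: combined hepatic side effect score as listed in the training data of the Drug Induced Liver Injury Prediction System (DILIps).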
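For HepSE bilirubinemia in this document: bilirubinemia hepatic side effect score drawn from the DILIps training data, a prediction system for drug-induced liver injury; call rule not given here.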
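For HepSE cholecystitis in this document: Cholecystitis-related hepatic side effect score drawn from the DILIps (drug-induced liver injury prediction) training data set; call rule not given here.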
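For HepSE cholelithiasis in this document: hepatic side effect score for cholelithiasis, drawn from the DILIps training data for predicting drug-induced liver injury; call rule not given here.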
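For HepSE cirrhosis in this document: cirrhosis hepatic side effect score taken from the DILIps (drug-induced liver injury prediction) training set; call rule not given here.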
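For HepSE elevated liver function tests in this document: hepatic side effect score for raised liver function tests, as recorded in the DILIps training set used for predicting drug-induced liver injury.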
For HepSE hepatic failure in this document: call rule not given here.
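For HepSE hepatic necrosis in this document: score of hepatic side effects for hepatic necrosis, drawn from the training data of DILIps, a prediction system for drug-induced liver injury; call rule not given here.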
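For HepSE hepatitis in this document: Hepatitis-related hepatic side effect score taken from the training data of DILIps, a prediction system for drug-induced liver injury; call rule not given here.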
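For HepSE hepatomegaly in this document: hepatic side effect score for hepatomegaly, taken from the training set of the DILIps drug-induced liver injury prediction system; call rule not given here.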
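For HepSE jaundice in this document: Jaundice-related hepatic side-effect score drawn from the training data of the DILIps (drug-induced liver injury prediction system); call rule not given here.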
For HepSE liver disease in this document: call rule not given here.
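For HepSE liver fatty in this document: hepatic side effect score for fatty liver, taken from the DILIps training set for predicting drug-induced liver injury; call rule not given here.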
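For HepSE liver function tests abnormal in this document: hepatic side effect score taken from the DILIps (drug-induced liver injury prediction system) training data, here covering abnormal liver function test findings.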

Consider `CO[C@@H]1O[C@H](CO)[C@H](O)[C@H](O[C@@H]2O[C@@H](C(=O)O)[C@@H](OC)[C@H](O)[C@H]2O)[C@H]1NC(C)=O`, for which, in [1], the DILI positive/negative is listed as 1.
On the same count and under the same terms, the figure for `CCO[C@@H]1OC(=O)C[C@@H]1NC(=O)[C@@H]1CCCN2C(=O)CC[C@H](NC(=O)c3nccc4ccccc34)C(=O)N12` is 1; for `CC(N)C(=O)OC(C)(C)Cc1ccc(Cl)cc1` (stereo not given) [ALAPROCLATE] it is 1; for `C[C@H](N)C(=O)N[C@@H](C)C(=O)N[C@H]1[C@@H]2CN(c3nc4c(cc3F)c(=O)c(C(=O)O)cn4-c3ccc(F)cc3F)C[C@@H]21` [ALATROFLOXACIN] it is 1.
As to `C=CCOc1ccc(CC(=O)O)cc1Cl` [ALCLOFENAC], in data set [1] (Liver), the DILI positive/negative is given as 1.
`O=C(O)CCCCCCNC1c2ccccc2CCc2ccccc21` [AMINEPTINE] displayed a DILI positive/negative in [1] of 1.
In data set [1], `CCCCN1C(=O)[C@@H]([C@H](O)C2CCCCC2)NC(=O)C12CCN(Cc1ccc(Oc3ccc(C(=O)O)cc3)cc1)CC2` [APLAVIROC] registered a DILI positive/negative of 1.
Turning to `O=C(O)COc1nn(Cc2ccccc2)c2ccccc12` [BENDAZAC], the DILI positive/negative in [1] (Liver) was found to be 1.
`CCc1oc2ccccc2c1C(=O)c1ccc(O)cc1` [BENZARONE] gave a DILI positive/negative in data set [1] of 1.
In data set [1], `CCc1oc2ccccc2c1C(=O)c1cc(I)c(O)c(I)c1` [BENZIODARONE] had a DILI positive/negative of 1.
Same read-out and setting: the figure for `CCCCNc1ccc(C(=O)OCCOCCOCCOCCOCCOCCOCCOCCOCCOC)cc1` [BENZONATATE] is 0; for `C[C@@H](Cc1ccccc1)N(C)Cc1ccccc1` [BENZPHETAMINE] it is 0.
Still for that read-out and setting: the figure for `CN1C(=O)CCS(=O)(=O)C1c1ccc(Cl)cc1` (stereo not given) [CHLORMEZANONE] is 1.
Turning to `Nc1nc(Cl)nc2c1ncn2[C@H]1C[C@H](O)[C@@H](CO)O1` [CLADRIBINE], in data set [2], the HepSE_hepatitis is listed as 0. Further, in data set [3], the HepSE_bilirubinemia came out at 0. This compound gave a HepSE_cholelithiasis in [4] of 0. The same compound had a HepSE_hepatic failure in data set [5] of 0. Also, in [6], the “HepSE_elevated liver function tests” value was found to be 0. For the same compound, the “HepSE_liver function tests abnormal” value in [7] came to 0. The same compound showed a HepSE_liver fatty in [8] of 0. This compound also had a HepSE_hepatomegaly in data set [9] of 0. Moreover, the HepSE_liver disease in data set [10] was 0. Besides, the HepSE_cholecystitis in data set [11] turned out to be 0. For the same compound, in data set [12], the HepSE_jaundice was 0. The same compound showed a HepSE_hepatic necrosis in data set [13] of 0. The HepSE_cirrhosis in data set [14] was found to be 0. In data set [15], the “HepSE_Combined Scores” value amounted to 0. The compound also yielded a DILI positive/negative in data set [16] of 0.
In data set [1], `CN(C)CCCC1c2ccccc2Nc2ccc(Cl)cc21` (stereo not given) [CLOMACRAN] had a DILI positive/negative of 1.
On the same count and under the same terms, the figure for `COc1ccc2c(C(=O)c3ccc(Cl)cc3)c(C)n(CC(=O)O)c2c1` [CLOMETACIN] is 1.
`CCN(CC)CCOc1ccc(C(=C(Cl)c2ccccc2)c2ccccc2)cc1` [CLOMIPHENE] returned a HepSE_hepatitis in data set [2] of 1. This compound registered a HepSE_bilirubinemia in [3] of 0. In addition, the HepSE_cholelithiasis in data set [4] came to 0. The same compound registered a HepSE_hepatic failure in data set [5] of 0. Also, the “HepSE_elevated liver function tests” value in data set [6] is recorded as 0. The “HepSE_liver function tests abnormal” value in data set [7] is given as 0. The compound further displayed a HepSE_liver fatty in data set [8] of 0. Moreover, the HepSE_hepatomegaly in data set [9] worked out at 0. This compound also showed a HepSE_liver disease in data set [10] of 0. In data set [11], this compound came in with a HepSE_cholecystitis of 0. Also, in data set [12], the HepSE_jaundice turned out to be 0. This compound yielded a HepSE_hepatic necrosis in data set [13] of 0. Further, the HepSE_cirrhosis in [14] was 0. Moreover, the “HepSE_Combined Scores” value in data set [15] was 1. In [16], this compound yielded a DILI positive/negative of 1.
With `CC(=O)Oc1ccc(C(=C2CCCCC2)c2ccc(OC(C)=O)cc2)cc1` [CYCLOFENIL], the DILI positive/negative in data set [1] is recorded as 1.
Still for that read-out and setting: the figure for `CN1c2c(oc(=O)n(-c3ccccn3)c2=O)-c2ccccc2S1(=O)=O` [DROXICAM] is 1; for `NC(N)=Nc1nc(CSCCN/C=N/S(=O)(=O)c2ccc(Br)cc2)cs1` [EBROTIDINE] it is 1; for `CC[N+](C)(C)c1cccc(O)c1.[Br-]` [EDROPHONIUM BROMIDE] it is 0.
Take `CC1=NN(c2ccc(C)c(C)c2)C(=O)/C1=N\Nc1cccc(-c2cccc(C(=O)O)c2)c1O` [ELTROMBOPAG]: in data set [1] (Liver), the DILI positive/negative came out at 1.
For the compound `O=C(c1cc(O)c(O)c(O)c1)c1ccc(O)c(O)c1O` [EXIFONE], the DILI positive/negative in data set [1] is listed as 1.
Take `CN1CCC(Nc2ncc3ncnc(Nc4ccc(F)c(Cl)c4)c3n2)CC1` [FALNIDAMOL]: the DILI positive/negative in data set [1] (Liver) came out at 1.
The compound `O=C(O)Cc1csc(-c2ccc(Cl)cc2)n1` [FENCLOZIC ACID] had a DILI positive/negative in [1] of 1.
In data set [1], `COc1cccc2c1[C@@H]1CN(CCCCn3c(=O)[nH]c4c(sc5ncc(-c6ccccc6)nc54)c3=O)C[C@@H]1CO2` [FIDUXOSIN] displayed a DILI positive/negative of 1.
For `CC(C)Nc1ncccn1` [ISAXONINE], in data set [1], the DILI positive/negative was determined as 1.
With `CS(=O)(=O)CCNCc1ccc(-c2ccc3ncnc(Nc4ccc(OCc5cccc(F)c5)c(Cl)c4)c3c2)o1` [LAPATINIB], in data set [1], the DILI positive/negative is on record as 1.
Same read-out and setting: the figure for `Cc1ccc(Nc2c(F)cccc2Cl)c(CC(=O)O)c1` [LUMIRACOXIB] is 1.
The same measure, in the same setting: the figure for `Cc1nnc(C(C)C)n1[C@@H]1C[C@H]2CC[C@@H](C1)N2CC[C@H](NC(=O)C1CCC(F)(F)CC1)c1ccccc1` [MARAVIROC] is 1; for `CC(NN)c1ccccc1` (stereo not given) [MEBANAZINE] it is 1; for `CN1CCCC(CN2c3ccccc3Sc3ccccc32)C1` (stereo not given) [MEPAZINE] it is 1.
Still for that read-out and setting: the figure for `NCCO` [MONOETHANOLAMINE] is 0; for `O=C(CCNNC(=O)c1ccncc1)NCc1ccccc1` [NIALAMIDE] it is 1.
Compound `CN(C)Cc1ccc(CSCCN/C(=C\[N+](=O)[O-])NCc2ccc3c(c2)OCO3)o1` [NIPEROTIDINE] yielded a DILI positive/negative in data set [1] (Liver) of 1.
Consider `Cc1nc([N+](=O)[O-])cn1-c1ccc([N+](=O)[O-])cc1` [NITREFAZOLE], for which the DILI positive/negative in [1] is 1.
Same read-out and setting: the figure for `O=C1Nc2ccccc2C1(c1ccc(O)cc1)c1ccc(O)cc1` [OXYPHENISATINE] is 1; for `CONC(=N)c1ccc(-c2ccc(-c3ccc(C(=N)NOC)cc3)o2)cc1` [PAFURAMIDINE] it is 1.
Regarding `C[C@H]1[C@H](c2ccccc2)OCCN1C` [PHENDIMETRAZINE], the DILI positive/negative in data set [1] is given as 0.
In [1], `CC(COc1ccccc1)NN` (stereo not given) [PHENOXYPROPAZINE] showed a DILI positive/negative of 1.
In data set [1], `NC(=O)C1CCN(CCCN2c3ccccc3Sc3ccc(Cl)cc32)CC1` [PIPAMAZINE] showed a DILI positive/negative of 1.
On the same count and under the same terms, the figure for `NC(=O)NS(=O)(=O)c1ccc(N)cc1` [SULFACARBAMIDE] is 1.
On to `Nc1ccc(S(=O)(=O)Nc2nccs2)cc1` [SULFATHIAZOLE], for which the DILI positive/negative in data set [1] (Liver) turned out to be 1.
`CCCCCCCCNC(C)C(O)c1ccc(SC(C)C)cc1` (stereo not given) [SULOCTIDIL] returned a DILI positive/negative in data set [1] of 1.
On to `CCC1(c2ccccc2)C(=O)NC(=O)NC1=O.CCCCCOC(CN1C(=O)N(CC(COCCCC)OC(N)=O)C(=O)C(CC)(c2ccccc2)C1=O)OC(N)=O.CCCCOCC(CN1C(=O)NC(=O)C(CC)(c2ccccc2)C1=O)OC(N)=O` (stereo not given) [TETRABAMATE], for which the DILI positive/negative in data set [1] is 1.
Consider `CN1c2ccccc2C(NCCCCCCC(=O)O)c2ccc(Cl)cc2S1(=O)=O` (stereo not given) [TIANEPTINE], for which the DILI positive/negative in [16] is recorded as 1.
In turn, `Cc1cc(Br)c(O)c2ncccc12` [TILBROQUINOL] registered a DILI positive/negative in data set [1] of 1.
Still for that read-out and setting: the figure for `COc1ccc2c(C(=S)N(C)CC(=O)O)cccc2c1C(F)(F)F` [TOLRESTAT] is 1; for `CC(=O)Oc1ccc(C2(c3ccc(OC(C)=O)cc3)C(=O)N(C(C)=O)c3ccccc32)cc1` [TRIACETYLDIPHENOLISATIN] it is 1.
On to `CN1C(=O)OC(C)(C)C1=O` [TRIMETHADIONE], for which the DILI positive/negative in data set [16] worked out at 1.
The same measure, in the same setting: the figure for `COc1cc(C(=O)NCc2ccc(OCCN(C)C)cc2)cc(OC)c1OC.Cl` [TRIMETHOBENZAMIDE HYDROCHLORIDE] is 1; for `CN(C)CCN(Cc1ccccc1)c1ccccn1.Cl` [TRIPELENNAMINE HYDROCHLORIDE] it is 1.
The same measure, in the same setting: the figure for `CO[C@H]1C[C@H](O[C@H]2[C@H](C)[C@@H](O[C@@H]3O[C@H](C)C[C@H](N(C)C)[C@H]3OC(C)=O)[C@@H](C)C[C@@]3(CO3)C(=O)[C@H](C)[C@@H](OC(C)=O)[C@@H](C)[C@@H](C)OC(=O)[C@@H]2C)O[C@@H](C)[C@@H]1OC(C)=O` [TROLEANDOMYCIN] is 1.
In data set [16] (Liver), `Oc1ncc(N(CCCl)CCCl)c(O)n1` [URACIL MUSTARD] registered a DILI positive/negative of 1.
In [16], `Nc1ncnc2c1ncn2[C@@H]1O[C@H](CO)[C@@H](O)[C@@H]1O` [VIDARABINE] showed a DILI positive/negative of 0.
On the same count and under the same terms, the figure for `CC[C@]1(O)C[C@@H]2CN(CCc3c([nH]c4ccccc34)[C@@](C(=O)OC)(c3cc4c(cc3OC)N(C)[C@H]3[C@@](O)(C(=O)OC)[C@H](OC(C)=O)[C@]5(CC)C=CCN6CC[C@]43[C@@H]65)C2)C1.O=S(=O)(O)O` [VINBLASTINE SULFATE] is 0; for `Cc1cc(CC(=O)O)n(C)c1C(=O)c1ccc(Cl)cc1` [ZOMEPIRAC] it is 0; for AUROTHIOGLUCOSE it is 1.
The same measure, in the same setting: the figure for BISMUTH SUBSALICYLATE is 0; for FERROUS SULFATE it is 0.
Still for that read-out and setting: the figure for GALLIUM NITRATE HYDRATE is 0; for LACTOSE, ANHYDROUS it is 0.
